Reference: patent US12365680B2, “Polymorphs of the hydrochloride salt of linaprazan glurate” (Cinclus Pharma Holding AB (Publ), priority 2021, dated 2025)
Entries after “also recorded” stand apart in the source; their conditions may differ. Structures can show the parent of a compound that is named as a salt.

Tests used:
[1] = Dynamic vapour sorption (DVS) hygroscopicity; type: physicochemical
Experimental: Analyses were performed on an SMS DVS-1 instrument. A few mg of the substance was added into an Al pan and exposed to stepwise RH changes during two identical consecutive cycles according to 0-10-20-30-40-50-60-70-80-90-80-70-60-50-40-30-20-10-0% RH using open loop mode. The experiments were performed using a gas flow rate of 200 mL/min and at 25° C. The dm/dt criteria applied was 0.001 weight-%/min during a 5-minutes window, with a maximum allowed time of 360 minutes and a minimum allowed time of 10 minutes for all steps.
The hygroscopicity of Form 1 (obtained by crystallisation from DMF using EtOAc as the anti-solvent) and Form 2 (obtained from a slurry in MeOH) was investigated using DVS at 25° C. […] With a water uptake of 0.2% at 90% RH, Form 1 can be classified as non-hygroscopic.
The water uptake is rapid when the relative humidity is increased, and the water loss is equally rapid when the relative humidity is decreased. The sorption behaviour is typical for a channel hydrate, where the crystal structure adapts to accommodate different amounts of water depending on the surrounding humidity. The water uptake of 4.7% at 90% RH corresponds to 1.3 water molecules per linaprazan glurate HCl unit.

[2] = Solubility of free base and HCl salt in media simulating gastric fluid (FaSSGF, FeDSGA); type: physicochemical; details: after 1 hour
Experimental: For solubility studies, HPLC was performed using an Agilent 1100 series Liquid Chromatography system, equipped with DAD spectrometer. Analyses were performed using a Waters X Bridge BEH C18 column (4.6×100 mm, 2.5 μm) at 30° C. Mobile phase: A=0.1% formic acid in water, B=0.1% formic acid in acetonitrile. Flow rate 0.8 mL/min. Mobile phase program:
The solubility of the crystalline free base (Form A) and the crystalline HCl salt of linaprazan glurate (mixture of Forms 1 and 2) was studied in Fasted State Simulated Gastric Fluid (FaSSGF, Biorelevant, batch FFF-0119-B; pH 1.6) and Fed State Gastric Acid (FeDSGA, Biorelevant, batch FEDGAS-120-A; pH 5.0).
Saturated solutions were prepared in 4 mL vials by adding a fixed weight of the crystalline base or the crystalline HCl salt to 2 mL of each of the different buffer solutions. Vials were sonicated for 10 minutes and then stirred with a magnetic stirrer on a water bath (37° C.) for 24 hours. Samples were taken after 1, 4 and 24 hours, in replicates, and analysed by HPLC-UV. Concentrations were calculated from a calibration curve, constructed using 8 calibration standards (serial dilutions of stock solutions of the free base and the HCl salt of linaprazan glurate).

[3] = cited from earlier work
[4] = Pharmacokinetics of linaprazan glurate after absorption; details: in vivo
[5] = test system: intragastric acidity; assay: Clinical Phase I study of linaprazan glurate, intragastric pH; type: in vivo; details: human, plasma, oral; after 22 hours; to maintain intra-gastric pH above 4 for 24 hours; read-out: minimal plasma concentration (Cmin) of linaprazan required
[6] = Phase I and II studies; cited from earlier work

With `Cc1cccc(C)c1CNc1cc(C(=O)NCCOC(=O)CCCC(=O)O)cn2c(C)c(C)nc12` [Form 1] the “hygroscopicity (in words)” value ([1]; DVS at 25° C.) was “non-hygroscopic; also recorded: very low hygroscopicity”.
With `Cc1cccc(C)c1CNc1cc(C(=O)NCCOC(=O)CCCC(=O)O)cn2c(C)c(C)nc12` [Form 2] the “hygroscopicity (in words)” value ([1]; DVS at 25° C.) was “significant uptake of water at elevated humidities”, the water uptake ([1]; DVS at 25° C., 90% RH) was 4.7% and the “water molecules per linaprazan glurate HCl unit” value ([1]; corresponds to water uptake at 90% RH) was 1.3.
For `Cc1cccc(C)c1CNc1cc(C(=O)NCCOC(=O)CCCC(=O)O)cn2c(C)c(C)nc12` [HCl salt], the “solubility of the HCl salt relative to the free base” value ([2]; FeDSGA pH 5.0, 37° C.) was “more than 6.5 times”.
In the case of `Cc1cccc(C)c1CNc1cc(C(=O)NCCOC(=O)CCCC(=O)O)cn2c(C)c(C)nc12` [free base], the “solubility of the free base relative to the HCl salt” value ([2]; FaSSGF pH 1.6, 37° C.) is listed as “about 1.4 times”, the “solubility at pH 1” value ([3]; pH 1) is listed as “only slightly soluble” and the “solubility in water at pH 6.8” value ([3]; pH 6.8) is listed as “practically insoluble”.
In the case of `Cc1cccc(C)c1CNc1cc(C(=O)NCCOC(=O)CCCC(=O)O)cn2c(C)c(C)nc12` [linaprazan glurate, 5-{2-[({8-[(2,6-dimethylbenzyl)amino]-2,3-dimethylimidazo[1,2-a]pyridine-6-yl}carbonyl)-amino]ethoxy}-5-oxopentanoic acid], the “half-life in the body compared to linaprazan” value [4] is reported as “longer half-life”, the “metabolism following absorption into the blood stream” value [4] is reported as “quickly metabolized into linaprazan” and the plasma concentration [4] is reported as “only very low and difficult to determine”.
For `Cc1cccc(C)c1CNc1cc(C(=O)NCCO)cn2c(C)c(C)nc12` [linaprazan], the concentration at 22 h [5] is given as ≥ 240 nM, the elimination [6] is given as “quickly eliminated from the body” and the “onset of action and effect” value [6] is given as “fast onset of action and full effect at first dose”. The tolerability [6] was “well tolerated”.
